Measurements as given in patent publication US20220378802A1, “TREATMENT OF ALCOHOLIC HEPATITIS” (Durect Corporation, priority 2019, published 2022).
“Also recorded” adds a separate entry of the source.

How the values were obtained:
[1] = system: patients with alcoholic hepatitis; assay: Pharmacodynamic signals (Lille score, MELD, bilirubin, survival) in Phase 2a trial; type: in vivo, human
Experimental: As described in more detail below, a total of 19 patients were enrolled into an open-label Phase 2a multi-center trial, of whom 15 had Maddrey's Discriminant Function (MDF) ≥32 (Severe Alcoholic Hepatitis (SAH)), 12 had MELD scores at 21-30, and 11 had baseline serum bilirubin levels >8 mg/dL. All patients received IV infused 25HC3S (at 30, 90, or 150 mg) on Day 1 and Day 4 (if still hospitalized), and were followed for 28-days. The final enrollment was 19 patients comprised of: 8 patients (4 moderate and 4 severe) dosed at 30 mg, 7 patients (3 moderate and 4 severe) dosed at 90 mg, and 4 patients (4 severe) dosed at 150 mg.
• Study Drug A 25HC3S sodium salt solution contained: • 30 mg/mL 25HC3S sodium salt; • 240 mg/mL hydroxypropyl-beta-cyclodextrin; and • 50 mmole phosphate buffer • The 25HC3S sodium salt solution was diluted in 100 mL 5% dextrose or 0.9% sodium chloride infusion solution: • Dose 1: 30 mg of 25HC3S sodium salt in 100 mL 5% dextrose or 0.9% sodium chloride • Dose 2: 90 mg of 25HC3S sodium salt in 100 mL 5% dextrose or 0.9% sodium chloride • Dose 3: 150 mg of 25HC3S sodium salt in 100 mL 5% dextrose or 0.9% sodium chloride • 25HC3S sodium salt was administered by slow intravenous infusion over 2 hrs (50 mL/h) until the entire dose is given at Day 1 and Day 4. If a patient met the hospital discharge criteria prior to the second dose, the patient received only one dose instead of two doses. • Study Procedure The study was conducted in two parts. Part A included patients with MELD scores of 11-20 (moderate AH patients), and Part B included patients with MELD of scores 21-30. The doses of 25HC3S sodium salt administered were 30 mg and 90 mg for Part A and 30 mg, 90 mg and 150 mg for Part B, with 4 patients per dose group per Part (except for only 3 patients in the 90 mg cohort of Part A). All patients were followed to Day 28. • The study started in 4 moderate AH patients (Part A) at 30 mg dose level. After completing the dosing, a Dose Escalation Committee (DEC) reviewed safety, tolerability and pharmacokinetic (PK) data from all 4 patients and determined that it was safe to move forward to dose 4 severe AH patients (Part B) at the same dose level, 30 mg, as well as escalating the dose level to 90 mg in moderate patients (Part A). The same dose escalation procedure was then conducted in Part B until all 4 patients received 150 mg doses. • A flow diagram of the study is depicted in FIG. 2. Each dose cohort enrolled up to 4 subjects. Study subjects received up to 2 doses of 25HC3S sodium salt. The first dose was administered on Day 1 and, if still hospitalized, the second dose was administered on Day 4. A pharmacokinetic (PK) sample was collected at: Time 0 (pre-dose), 1 hour post-dose initiation, 2 hours (end of infusion), 3 hours post-dose initiation, 4 hours post-dose initiation, 8 hours post-dose initiation, 12 hours post-dose initiation, 24-hours post-dose initiation and 50 hours post-dose initiation.
• 1. Patients with alcoholic hepatitis defined in this clinical trial as: • a. History of heavy alcohol abuse: >40 g/day in females or >60 g/day in males for a minimum period of 6 months, AND • b. Consumed alcohol within 12 weeks of entry into the study, AND • c. Serum bilirubin >3 mg/dL AND AST>ALT, but less than 300 U/L, AND • d. MELD score between 11-30, inclusive A listing of the baseline laboratory characteristics of the subjects of each cohort is shown in the Table below. […]

[2] = Pharmacokinetics of 25HC3S in healthy subjects (earlier study); type: in vivo, human; conditions: Healthy subjects (N = 5), single dose of 150 mg
Source text: The clearance of 25HC3S sodium was decreased by 80% in AH patients as compared to that in healthy subjects from an earlier study. A comparison of the pharmacokinetic parameters of 25HC3S administered to healthy subjects versus subjects with alcoholic hepatitis is summarized in the following Table. A comparison of the plasma concentration of 25HC3S administered to healthy subjects versus subjects with alcoholic hepatitis is depicted in FIG. 5.

[3] = All patients with 30 or 90 mg (14), Day 7
[4] = Baseline bilirubin >8 mg/dL (11), Day 7
[5] = Baseline bilirubin >8 mg/dL with 30 or 90 mg (8), Day 7
[6] = MELD 21-30 with 30 or 90 mg (8), Day 7
[7] = SAH with 30 or 90 mg (11), Day 7

C[C@H](CCCC(C)(C)O)[C@H]1CC[C@H]2[C@@H]3CC=C4C[C@@H](OS(=O)(=O)O)CC[C@]4(C)[C@H]3CC[C@]12C [25HC3S, 5-cholesten-3,25-diol, 3-sulfate]
patients with a Lille score below 0.45 (number of patients) ([1]; 18 AH patients who returned for Day 7 visit): 16/18 | reductions from baseline in bilirubin (day 7 and 28) and MELD (day 28) compared with University of Louisville historical control ([1]; 19 patients): statistically significantly greater reductions | survival rate ([1]; 28-day follow-up period, all patients): 100% | Responders (Lille score <0.45) ([1]; All Patients (18), Day 7): 89% | Lille Median (1st, 3rd quartile) [1, 3]: 0.05 (0.04, 0.19) | Responders (Lille score <0.45) [1, 3]: 100% | Lille Median (1st, 3rd quartile) [1, 4]: 0.10 (0.05, 0.20) | Responders (Lille score <0.45) [1, 4]: 82% | Lille Median (1st, 3rd quartile) [1, 5]: 0.10 (0.05, 0.19) | Responders (Lille score <0.45) [1, 5]: 100% | serum bilirubin levels ([1]; Day 7, one or two doses): significantly reduced | MELD scores ([1]; Day 28, one or two doses): significantly reduced | Lille Median (1st, 3rd quartile) ([1]; MELD 21-30 (12), Day 7): 0.19 (0.11, 0.25) | Responders (Lille score <0.45) ([1]; MELD 21-30 (12), Day 7): 83% | Lille Median (1st, 3rd quartile) [1, 6]: 0.19 (0.10, 0.19) | Responders (Lille score <0.45) [1, 6]: 100% | Lille Median (1st, 3rd quartile) ([1]; SAH (15), Day 7): 0.19 (0.05, 0.22) | median reduction of MELD from baseline ([1]; SAH patients treated with 30 or 90 mg, Day 28, p=0.01): −19.0% | MELD score change from baseline ([1]; SAH patients, Day 28, 1 or 2 doses, p=0.01): −17.5% | Lille Median (1st, 3rd quartile) [1, 7]: 0.12 (0.05, 0.19) | Responders (Lille score <0.45) [1, 7]: 100% | Responders (Lille score <0.45) ([1]; SAH, MDF≥32 (15), Day 7): 87% | reduction from baseline of serum total bilirubin levels ([1]; all AH patients (n=18), Day 7): −14% | survival through 28-day follow-up period ([1]; all patients, including SAH): survived | Lille score at Day 7 ([1]; all subjects administered 30 mg and 90 mg (FIG. 6)): less than 0.45 | Lille scores compared with published historical data (Louvet et al., 145 AH patients) ([1]; p<0.0001): significantly lower; also recorded: significantly better | Lille scores compared with University of Louisville historical control (standard of care) ([1]; p=0.005): statistically significantly lower | serum bilirubin change ([1]; patients with baseline bilirubin >8.0 mg/dL, Day 7, p=0.02): −25.1% | Lille score at Day 7 ([1]; two of the subjects having severe AH administered 150 mg (FIG. 6)): greater than 0.45 | V [2]: 55.0 (4.3) L | AUC(0-inf) ([2]; human, plasma): 6190 ng·h/mL | Cmax ([2]; human, plasma): 3100 ng/mL | clearance ([2]; human, plasma): 408 mL/min | half-life ([2]; human, plasma, read-out: T½ (converted)): 1.6 h
